Experimental findings from patent US11168364B2, “Method and system for sequencing nucleic acids” (priority 2016, dated 2021) are described below.

Read-outs that look alike come from different tables or passages of the source.

Test [1] concerns the target Klenow (3′→5′ exo(−)) fragment of E. coli DNA polymerase (Escherichia coli, UniProt P00582, D355A/E357A).
Another test deals with Klenow (Escherichia coli, UniProt P00582). In words: Label-free optical detection of Klenow binding with magnesium in the examination step (Example 1). To be noted: Polymerase Buffer with 10 mM MgCl2; 150 nM Klenow; 100 μM dNTP; template base T.
For test [2], the target named is T1, Bsu DNA polymerase large fragment / primed template nucleic acid (Bacillus subtilis, UniProt O34996).
T1 construct: 350 U/ml Bsu DNA polymerase large fragment
T1 sequence (O34996 297-880 limits assumed): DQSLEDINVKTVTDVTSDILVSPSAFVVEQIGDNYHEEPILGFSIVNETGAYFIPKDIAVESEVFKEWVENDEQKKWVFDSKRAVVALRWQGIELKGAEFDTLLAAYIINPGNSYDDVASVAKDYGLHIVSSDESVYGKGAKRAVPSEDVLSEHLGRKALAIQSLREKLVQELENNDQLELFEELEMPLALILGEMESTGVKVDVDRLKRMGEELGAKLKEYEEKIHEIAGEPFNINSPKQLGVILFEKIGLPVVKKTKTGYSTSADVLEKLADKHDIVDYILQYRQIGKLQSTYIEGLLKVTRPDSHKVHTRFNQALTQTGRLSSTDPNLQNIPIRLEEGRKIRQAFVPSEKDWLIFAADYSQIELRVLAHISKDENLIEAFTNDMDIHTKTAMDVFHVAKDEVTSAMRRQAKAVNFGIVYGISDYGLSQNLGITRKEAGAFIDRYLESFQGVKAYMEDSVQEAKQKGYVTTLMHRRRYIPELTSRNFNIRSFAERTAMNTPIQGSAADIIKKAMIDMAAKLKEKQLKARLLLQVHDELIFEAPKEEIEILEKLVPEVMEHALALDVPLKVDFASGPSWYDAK
As to the kind of experiment: Biolayer interferometry of polymerase binding to immobilized primed template with cognate or non-cognate nucleotide, salt titration (Example 19). To be noted: for Ternary Complex Signal (Δλ, nm): dCTP (cognate); for Binary Complex Signal (Δλ, nm): dGTP (non-cognate). The source says:
A FORTEBIO® (Menlo Park, Calif.) OCTET® instrument employing biolayer interferometry to measure binding reactions at the surface of a fiber optic tip was used in a multiwell plate format to investigate differential stability of binary and ternary complexes. Template strands biotinylated at their 5′-ends were used to immobilize the primed template nucleic acid onto fiber optic tips functionalized with streptavidin (SA) according to standard procedures. […] Tips were first equilibrated in a Tris-buffered solution containing 30 mM Tris-HCl (pH 8.0), and 0.1 mM EDTA before commencing the cycling protocol. Independent binding reactions for the two test nucleotides (i.e., cognate and non-cognate nucleotides) were carried out in the presence of concentrations of NaCl, KCl, or potassium glutamate that varied from 50 mM to 500 mM. […] In all instances, the reaction mixture used during the examination step contained Tris-HCl (pH 8.0), 0.01% Tween-20, 100 μg/ml BSA, 2 mM NiSO4, 350 U/ml Bsu DNA polymerase large fragment; and one of the nucleotides at a concentration of 100 μM (dCTP was used as a cognate nucleotide, and dGTP was used as a non-cognate nucleotide). Following each examination step, tips were exposed to a buffer containing 30 mM Tris-HCl (pH 8.0), 500 mM KCl, 2 mM EDTA and 0.05% Tween-20 for 20 seconds to strip enzyme complexes from the primed template nucleic acid. The stripping step was followed by a 15 second exposure to examination buffer without enzyme, dNTP or divalent cations to regenerate tips for the next cycle of examination. When using a single contacting step to effect binding of polymerase and nucleotide to the primed template nucleic acid, the binding step was 45 seconds long, with binding interactions being monitored continuously. This was accomplished by contacting the primed template nucleic acid with a single solution that included the polymerase and test nucleotide. Results from interferometry monitoring were analyzed to identify formation of ternary complexes (i.e., identifying cognate nucleotide) or binary complexes (i.e., identifying non-cognate nucleotide).
A general note: In BLI a coated tip is dipped into the sample, and binding shifts an interference pattern.

The mark [3] stands for this setting: divalent cation 2.0 mM (CoCl2 1.0 mM) in Binding Buffer, 100 μM dCTP.
The mark [4] stands for this setting: divalent cation 2.0 mM (CoCl2 1.0 mM), 100 μM dCTP.

Sequence of Klenow (3′→5′ exo(−)) fragment of E. coli DNA polymerase (P00582 324-928 D355A/E357A limits assumed): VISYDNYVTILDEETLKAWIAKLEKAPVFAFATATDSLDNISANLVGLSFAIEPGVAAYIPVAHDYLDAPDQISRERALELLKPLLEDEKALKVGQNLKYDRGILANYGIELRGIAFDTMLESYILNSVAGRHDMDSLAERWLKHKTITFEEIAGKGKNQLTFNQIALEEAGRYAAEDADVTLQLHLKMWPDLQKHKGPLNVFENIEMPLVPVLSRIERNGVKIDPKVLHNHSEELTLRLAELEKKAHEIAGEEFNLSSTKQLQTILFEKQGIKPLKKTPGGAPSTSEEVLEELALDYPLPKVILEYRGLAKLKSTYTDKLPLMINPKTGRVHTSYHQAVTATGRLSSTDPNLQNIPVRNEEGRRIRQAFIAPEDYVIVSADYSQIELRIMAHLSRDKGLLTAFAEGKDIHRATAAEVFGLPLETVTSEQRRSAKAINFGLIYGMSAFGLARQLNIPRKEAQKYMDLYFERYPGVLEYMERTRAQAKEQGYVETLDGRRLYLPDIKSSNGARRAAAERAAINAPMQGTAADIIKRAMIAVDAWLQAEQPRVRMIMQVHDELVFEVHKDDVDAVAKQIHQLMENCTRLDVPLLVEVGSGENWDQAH
Sequence of Klenow (P00582 324-928): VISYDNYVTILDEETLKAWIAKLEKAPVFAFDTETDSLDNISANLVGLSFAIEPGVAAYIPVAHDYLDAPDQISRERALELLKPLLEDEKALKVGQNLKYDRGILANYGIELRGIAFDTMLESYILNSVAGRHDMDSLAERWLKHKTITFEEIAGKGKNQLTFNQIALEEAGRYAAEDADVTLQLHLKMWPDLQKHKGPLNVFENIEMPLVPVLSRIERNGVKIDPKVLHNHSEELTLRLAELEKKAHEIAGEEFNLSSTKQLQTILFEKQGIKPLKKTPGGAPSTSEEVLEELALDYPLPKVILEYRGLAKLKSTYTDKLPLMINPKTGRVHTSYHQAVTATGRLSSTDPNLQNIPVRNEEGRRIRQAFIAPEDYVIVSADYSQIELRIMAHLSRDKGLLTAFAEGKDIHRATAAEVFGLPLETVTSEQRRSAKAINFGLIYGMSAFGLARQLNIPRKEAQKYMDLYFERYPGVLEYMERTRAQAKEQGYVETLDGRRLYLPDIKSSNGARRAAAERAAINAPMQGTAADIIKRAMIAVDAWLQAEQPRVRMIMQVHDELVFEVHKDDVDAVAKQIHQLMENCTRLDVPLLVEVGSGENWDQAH

For `[Ca+2].[Cl-].[Cl-]` [Ca2+, calcium chloride], in test [1], the “binding of Klenow exo(−) and dCTP to biosensor coated with ssDNA primer-template” value (“binding of Klenow exo(−) and dCTP” for short) was “transient peak”; the “nucleotide incorporation by Klenow exo(−) in the absence of Mg2+” value (“nucleotide incorporation” below) is reported as “complete nucleotide incorporation”.
With `[Ba+2].[Cl-].[Cl-]` [BaCl2, barium chloride], the “binding of Klenow exo(−) and dCTP” value in test [1] (setting [3]) is “bound strongly”.
In the case of manganese chloride [Mn2+], the “binding of Klenow exo(−) and dCTP” value in test [1] (setting [3]) was “flat peak”. Moreover, in test [1] (setting [4]), the “nucleotide incorporation” value was “complete nucleotide incorporation”.
Take `Nc1ncnc2c1ncn2[C@H]1C[C@H](O)[C@@H](COP(=O)(O)OP(=O)(O)OP(=O)(O)O)O1` [dATP, 2′-deoxyadenosine-5′-triphosphate]: the “pre-steady state rate constant” value at Klenow stood at 0.0106.
`Nc1ccn([C@H]2C[C@H](O)[C@@H](COP(=O)(O)OP(=O)(O)OP(=O)(O)O)O2)c(=O)n1` [dCTP, 2′-deoxycytidine-5′-triphosphate]: on Klenow, the “pre-steady state rate constant” value worked out at 0.0084.
With `[Cl][Cu][Cl]` [Cu2+, copper(II) chloride], the “binding of Klenow exo(−) and dCTP” value in test [1] is listed as “transient peak”.
For `[Cl][Co][Cl]` [Co2+, cobalt chloride], the “binding of Klenow exo(−) and dCTP” value in test [1] (setting [3]) is “transient peak”. The “nucleotide incorporation” value in test [1] (setting [4]) was “complete nucleotide incorporation”.
With `N.N.O=S(=O)(O)O` [ammonium sulfate], in test [1] (setting [3]), the “binding of Klenow exo(−) and dCTP” value is listed as “bound strongly”.
In the case of `[Cl-].[Cl-].[Zn+2]` [Zn2+, zinc chloride], the “binding of Klenow exo(−) and dCTP” value in test [1] (setting [3]) is given as “transient peak”. In test [1] (setting [4]), the “nucleotide incorporation” value was “complete nucleotide incorporation”.
In the case of `N[C@@H](CCC(=O)[O-])C(=O)[O-].[K+].[K+]` [Potassium Glutamate, potassium glutamate], the “Fold Enhancement (Ternary/Binary)” value in test [2] (Potassium glutamate 50 mM) stood at 1.05; in test [2] (Potassium glutamate 75 mM) it was 1.01; in test [2] (Potassium glutamate 100 mM), 1.02; in test [2] (Potassium glutamate 125 mM), 1.05; in test [2] (Potassium glutamate 150 mM), 1.07; in test [2] (Potassium glutamate 175 mM) it was 1.08. The “Fold Enhancement (Ternary/Binary)” value was 1.07 in test [2] (Potassium glutamate 200 mM); 1.11 in test [2] (Potassium glutamate 225 mM); 1.17 in test [2] (Potassium glutamate 250 mM); 1.22 in test [2] (Potassium glutamate 275 mM); 1.23 in test [2] (Potassium glutamate 300 mM); 1.27 in test [2] (Potassium glutamate 325 mM). Further, the “Fold Enhancement (Ternary/Binary)” value in test [2] (Potassium glutamate 350 mM) is listed as 1.30; in test [2] (Potassium glutamate 375 mM) it was 1.32; in test [2] (Potassium glutamate 400 mM), 1.36; in test [2] (Potassium glutamate 425 mM) it was 1.46; in test [2] (Potassium glutamate 450 mM), 1.52; in test [2] (Potassium glutamate 475 mM), 1.56. The “Fold Enhancement (Ternary/Binary)” value in test [2] (Potassium glutamate 500 mM) turned out to be 1.60. Further, the “Ternary Complex Signal (Δλ, nm)” value in test [2] (Potassium glutamate 50 mM) is reported as 1.67 nm; in test [2] (Potassium glutamate 75 mM) it was 1.69 nm; in test [2] (Potassium glutamate 100 mM), 1.67 nm; in test [2] (Potassium glutamate 125 mM), 1.65 nm; in test [2] (Potassium glutamate 150 mM), 1.62 nm; in test [2] (Potassium glutamate 175 mM), 1.56 nm. Also, the “Ternary Complex Signal (Δλ, nm)” value in test [2] (Potassium glutamate 200 mM) was 1.51 nm; in test [2] (Potassium glutamate 225 mM) it was 1.53 nm; in test [2] (Potassium glutamate 250 mM), 1.48 nm; in test [2] (Potassium glutamate 275 mM) it was 1.52 nm; in test [2] (Potassium glutamate 300 mM), 1.50 nm; in test [2] (Potassium glutamate 325 mM), 1.46 nm. The “Ternary Complex Signal (Δλ, nm)” value in test [2] (Potassium glutamate 350 mM) stood at 1.39 nm; in test [2] (Potassium glutamate 375 mM), 1.36 nm; in test [2] (Potassium glutamate 400 mM), 1.36 nm; in test [2] (Potassium glutamate 425 mM), 1.33 nm; in test [2] (Potassium glutamate 450 mM) it was 1.31 nm; in test [2] (Potassium glutamate 475 mM), 1.28 nm. Further, the “Ternary Complex Signal (Δλ, nm)” value in test [2] (Potassium glutamate 500 mM) is recorded as 1.28 nm. The “Binary Complex Signal (Δλ, nm)” value was 1.59 nm in test [2] (Potassium glutamate 50 mM); 1.68 nm in test [2] (Potassium glutamate 75 mM); 1.64 nm in test [2] (Potassium glutamate 100 mM); 1.57 nm in test [2] (Potassium glutamate 125 mM); 1.51 nm in test [2] (Potassium glutamate 150 mM); 1.44 nm in test [2] (Potassium glutamate 175 mM). For the same compound, the “Binary Complex Signal (Δλ, nm)” value in test [2] (Potassium glutamate 200 mM) amounted to 1.40 nm; in test [2] (Potassium glutamate 225 mM) it was 1.38 nm; in test [2] (Potassium glutamate 250 mM), 1.27 nm; in test [2] (Potassium glutamate 275 mM), 1.24 nm; in test [2] (Potassium glutamate 300 mM), 1.23 nm; in test [2] (Potassium glutamate 325 mM), 1.15 nm. Moreover, the “Binary Complex Signal (Δλ, nm)” value in test [2] (Potassium glutamate 350 mM) came out at 1.07 nm; in test [2] (Potassium glutamate 375 mM), 1.03 nm; in test [2] (Potassium glutamate 400 mM), 0.99 nm; in test [2] (Potassium glutamate 425 mM), 0.91 nm; in test [2] (Potassium glutamate 450 mM), 0.86 nm; in test [2] (Potassium glutamate 475 mM), 0.82 nm. Also, the “Binary Complex Signal (Δλ, nm)” value in test [2] (Potassium glutamate 500 mM) came out at 0.80 nm.
